Measurements reported in article PMC10982999, “Structure-Guided Design and Optimization of Covalent VHL-Targeted Sulfonyl Fluoride PROTACs” (Journal of Medicinal Chemistry, 2024).

Tests used:
[1] = biological target: T1, VCB and FAM-conjugated HIF1α-derived peptide interaction (Homo sapiens, UniProt P40337); assay: Competitive fluorescence polarization (FP) assay, VCB / FAM-conjugated HIF1α-derived peptide; assay type: binding; conditions: 2 h incubation between VCB and compound; read-out: apparent IC50 (FP)
T1 construct: human VHL (UniPort entry P40337, residues 1 -213); 6xHis followed by TEV site (N, cleaved yes); made in house; host or cells: E. coli One Shot BL21(DE3)
Experimental: We next focused on developing a second generation covalent VHL binder with enhanced potency and occupancy.
Figure 2 (A) Structure of VHL-SF2. […] (E) Competition pull-down assay from live cells between VHL-SF2-Biotin and VHL-SF2. HEK293T cells were pretreated with DMSO or varying concentrations of VHL-SF2 for 2 h at 37 °C. The cells were lysed and treated with DMSO or VHL-SF2-Biotin (50 μM) for 2 h at room temperature. A pull-down with streptavidin beads was conducted, after which the protein was resolved on SDS/PAGE. VHL and loading control GAPDH levels were visualized by Western blotting.
Figure S3. (A) Gel-based VHL labelling of VHL-SF1-Biotin, and (B) VHL-SF2-Biotin. VCB protein was pre-treated with DMSO, VHL-SF1-Biotin or VHL-SF2-Biotin for 2 h at room temperature, after which protein was resolved on SDS -PAGE and visualised by Neutravidin […]
Figure S4. Dose-response of VHL-SF1 following a 2 h pre-incubation in the presence of VCB and FAM-conjugated HIF1α-derived peptide, assessed by fluorescence polarization. Data […]
Figure S5. (A) VCB was incubated with DMSO for 24 h and subjected to intact-protein LC-MS (VHL: 24784 Da). […]
Fluorescence polarization assay protocol […]
well plate and the plate was shaken for 1 min, before reading fluorescence polarization on a Perkin Elmer Envision 2101 plate reader (excitation 486 nm, emission 535 nm). […]

[2] = biological target: T2, BRD4 (HEK293 HiBiT-BRD4 Cln3 cells) (Homo sapiens, UniProt O60885); assay: BRD4 HiBiT degradation assay; assay type: cell-based
T2 construct: GSK; host or cells: HEK293 HiBiT-BRD4 Cln3
Experimental: Figure 3 (A) Structure of BRD-SF2. […] BRD4 and loading control GAPDH levels were visualized by Western blotting. […] (D) HEK293 HiBiT-BRD4 Cln3 cells were treated with epoxomicin (1 μM) for 3 h, followed by the respective PROTAC or VHL-SF2 dose-dependently (75–0.01 μM) for 18 h. […] (E) HEK293 HiBiT-BRD4 Cln3 cells were treated with MLN4924 (1 μM) for 3 h, followed by the respective PROTAC or VHL-SF2 dose-dependently (75–0.01 μM) for 18 h. […] (F) Structure of AR-VHL-SF2 and AR2-VHL-SF2. […] The data the show mean ± SEM (n = 3).
Cellular BRD4/AR HiBiT assay
The HiBiT tagged cells were seeded at 10,000 cells per well in a 384-well plate (Thermo Scientific, 164610) at 25 µL per well in DMEM media containing 10% FBS and incubated overnight. Compounds were dispensed using D300e Digital Dispenser (HP) and normalized to 0.1% DMSO. Cells were pre-treated with Epoxomicin or MLN4924 for 3 h before treatment or directly with the PROTAC degraders for 18 or 24 h. Nano -Glo HiBiT lytic detection assay was performed as described in the manufacturer protocol (Promega). 25 µL of premixed detection reagent was added to each well of the 384 well assay plate and incubated for 15 min on an orbital shaker (at 600 RPM), and luminescence was read using a PHERAstar FS plate reader (BMG Labtech). Corresponding background RLU values were subtracted from DMSO control values and the percentage of protein (%) of were then calculated against […]
DMSO-treated controls. […]

Cc1cc([C@H](C(=O)N2C[C@H](S(=O)(=O)F)C[C@H]2C(=O)N[C@@H](CC(=O)OC(C)(C)C)c2ccc(-c3scnc3C)cc2)C(C)C)on1 [VHL-SF2, tert-Butyl (S)-3-((2S,4R)-4-(Fluorosulfonyl)-1-((R)-3-methyl-2-(3-methylisoxazol-5-yl)butanoyl)pyrr-olidine-2-carboxamido)-3-(4-(4-methylthiazol-5-yl)phenyl)propanoate]
IC50 [1]: 35 µM | effect on BRD4 levels ([2]; 18 h, 75 μM-1 pM): did not affect BRD4 levels | DC50 ([2]; read-out: BRD4 DC50): > 75 µM
